Consider four compounds from patent US10919914B2, “Heterocyclic compounds and uses thereof” (Infinity Pharmaceuticals, Inc., priority 2016, dated 2021).

The target in one assay is PI3K δ (Homo sapiens (Human), UniProt O00329). The assay is described as follows: PI3-Kinase HTRF assay. It counts as biochemical. The source says: A PI3-Kinase HTRF® assay kit (cat No. 33-016) purchased from Millipore Corporation is used to screen compounds provided herein. This assay uses specific, high affinity binding of the GRP1 pleckstrin homology (PH) domain to PIP3, the product of a Class 1A or 1B PI3 Kinase acting on its physiological substrate PIP2. During the detection phase of the assay, a complex is generated between the GST-tagged PH domain and biotinylated short chain PIP3. The biotinylated PIP3 and the GST-tagged PH domain recruited fluorophores (Streptavidin-Allophycocyanin and Europium-labeled anti-GST respectively) to form the fluorescence resonance energy transfer (FRET) architecture, generating a stable time-resolved FRET signal. The FRET complex is disrupted in a competitive manner by non-biotinylated PIP3, a product formed in the PI3 Kinase assay.
Chain of PI3K δ (O00329 whole entry, the tested form may be a part): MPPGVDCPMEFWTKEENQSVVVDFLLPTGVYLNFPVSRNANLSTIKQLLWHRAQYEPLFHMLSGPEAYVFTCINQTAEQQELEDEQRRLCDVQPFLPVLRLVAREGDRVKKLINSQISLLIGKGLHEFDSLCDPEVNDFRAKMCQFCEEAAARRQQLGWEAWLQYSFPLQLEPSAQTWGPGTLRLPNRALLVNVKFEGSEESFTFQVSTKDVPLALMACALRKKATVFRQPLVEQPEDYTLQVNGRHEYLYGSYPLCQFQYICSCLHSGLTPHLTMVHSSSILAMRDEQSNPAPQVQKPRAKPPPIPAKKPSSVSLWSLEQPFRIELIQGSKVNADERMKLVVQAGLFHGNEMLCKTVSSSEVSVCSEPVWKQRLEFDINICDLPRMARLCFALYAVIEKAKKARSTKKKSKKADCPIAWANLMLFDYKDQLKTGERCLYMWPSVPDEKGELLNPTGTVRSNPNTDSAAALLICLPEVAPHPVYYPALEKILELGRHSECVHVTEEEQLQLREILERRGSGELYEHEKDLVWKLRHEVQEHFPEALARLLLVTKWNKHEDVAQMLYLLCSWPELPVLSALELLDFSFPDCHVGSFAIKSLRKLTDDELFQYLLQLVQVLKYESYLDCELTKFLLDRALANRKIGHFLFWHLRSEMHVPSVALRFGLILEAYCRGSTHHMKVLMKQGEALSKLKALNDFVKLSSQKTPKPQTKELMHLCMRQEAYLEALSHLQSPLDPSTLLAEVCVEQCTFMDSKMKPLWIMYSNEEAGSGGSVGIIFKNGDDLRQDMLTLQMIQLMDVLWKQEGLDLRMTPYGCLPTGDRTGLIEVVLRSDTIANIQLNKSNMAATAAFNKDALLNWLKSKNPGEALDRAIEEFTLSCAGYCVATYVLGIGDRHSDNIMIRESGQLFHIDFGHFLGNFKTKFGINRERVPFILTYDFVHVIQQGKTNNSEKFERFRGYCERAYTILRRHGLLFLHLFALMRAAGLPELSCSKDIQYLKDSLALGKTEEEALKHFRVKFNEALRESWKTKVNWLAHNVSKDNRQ
Chain of PI3K δ (P27986 whole entry partner, the tested form may be a part): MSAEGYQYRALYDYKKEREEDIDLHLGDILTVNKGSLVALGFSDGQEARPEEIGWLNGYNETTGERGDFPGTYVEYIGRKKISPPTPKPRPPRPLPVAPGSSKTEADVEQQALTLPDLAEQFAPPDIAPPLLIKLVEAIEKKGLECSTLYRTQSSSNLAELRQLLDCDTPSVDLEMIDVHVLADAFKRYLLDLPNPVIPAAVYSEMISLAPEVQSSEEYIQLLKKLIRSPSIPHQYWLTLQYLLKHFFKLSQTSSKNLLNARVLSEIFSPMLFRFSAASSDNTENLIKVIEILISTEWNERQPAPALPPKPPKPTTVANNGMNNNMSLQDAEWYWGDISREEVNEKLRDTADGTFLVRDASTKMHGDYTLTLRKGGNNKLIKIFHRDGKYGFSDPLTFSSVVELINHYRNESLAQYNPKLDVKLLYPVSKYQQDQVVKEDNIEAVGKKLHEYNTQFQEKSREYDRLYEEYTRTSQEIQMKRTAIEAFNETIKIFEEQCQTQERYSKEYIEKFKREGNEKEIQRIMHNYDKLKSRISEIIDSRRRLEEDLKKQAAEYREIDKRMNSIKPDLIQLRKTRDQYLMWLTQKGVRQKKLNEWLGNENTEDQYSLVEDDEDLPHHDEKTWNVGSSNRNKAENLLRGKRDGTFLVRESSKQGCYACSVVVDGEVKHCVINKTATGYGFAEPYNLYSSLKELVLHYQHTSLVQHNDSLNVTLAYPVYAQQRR
PI3 Kinase α, γ or δ activity is assayed using the PI3 Kinase HTRF® assay kit (catalogue No. 33-016) purchased from Millipore Corporation. Purified recombinant PI3Kα (catalogue No. 14-602-K), PI3Kβ (catalogue No. 14-603-K), PI3Kγ (catalogue No. 14-558-K), and PI3Kδ (catalogue No. 14-604-K) are obtained from Millipore Corporation. Purified recombinant PI3K enzyme is used to catalyze the phosphorylation of phosphatidylinositol 4,5-bisphosphate (PIP2 at 10 μM) to phosphatidylinositol 3,4,5-trisphosphate (PIP3) in the presence of 10 μM ATP. The assay is carried out in 384-well format and detected using a Perkin Elmer EnVision Xcite Multilabel Reader. Emission ratios are converted into percent inhibitions and imported into GraphPad Prism software. […] IC50 values are determined using a nonlinear regression model available in GraphPad Prism 5.
Other commercial kits or systems for assaying PI3-K activities are available. The commercially available kits or systems can be used to screen for inhibitors and/or agonists of PI3-Ks including, but not limited to, PI 3-Kinase α, β, δ, and γ. […] The plate is sealed, incubated for 1 hour at room temperature, and then read on an appropriate plate reader. Data is analyzed and IC50s are generated using GraphPad Prism 5.
Background: Time-resolved FRET reads energy transfer from a long-lived donor to a nearby acceptor.

The target in a further assay is PI3K γ (Homo sapiens (Human), UniProt P48736). Description: PI3-Kinase HTRF assay. It counts as biochemical. The text has this: The biotinylated PIP3 and the GST-tagged PH domain recruited fluorophores (Streptavidin-Allophycocyanin and Europium-labeled anti-GST respectively) to form the fluorescence resonance energy transfer (FRET) architecture, generating a stable time-resolved FRET signal.
Chain of PI3K γ (P48736 whole entry, the tested form may be a part): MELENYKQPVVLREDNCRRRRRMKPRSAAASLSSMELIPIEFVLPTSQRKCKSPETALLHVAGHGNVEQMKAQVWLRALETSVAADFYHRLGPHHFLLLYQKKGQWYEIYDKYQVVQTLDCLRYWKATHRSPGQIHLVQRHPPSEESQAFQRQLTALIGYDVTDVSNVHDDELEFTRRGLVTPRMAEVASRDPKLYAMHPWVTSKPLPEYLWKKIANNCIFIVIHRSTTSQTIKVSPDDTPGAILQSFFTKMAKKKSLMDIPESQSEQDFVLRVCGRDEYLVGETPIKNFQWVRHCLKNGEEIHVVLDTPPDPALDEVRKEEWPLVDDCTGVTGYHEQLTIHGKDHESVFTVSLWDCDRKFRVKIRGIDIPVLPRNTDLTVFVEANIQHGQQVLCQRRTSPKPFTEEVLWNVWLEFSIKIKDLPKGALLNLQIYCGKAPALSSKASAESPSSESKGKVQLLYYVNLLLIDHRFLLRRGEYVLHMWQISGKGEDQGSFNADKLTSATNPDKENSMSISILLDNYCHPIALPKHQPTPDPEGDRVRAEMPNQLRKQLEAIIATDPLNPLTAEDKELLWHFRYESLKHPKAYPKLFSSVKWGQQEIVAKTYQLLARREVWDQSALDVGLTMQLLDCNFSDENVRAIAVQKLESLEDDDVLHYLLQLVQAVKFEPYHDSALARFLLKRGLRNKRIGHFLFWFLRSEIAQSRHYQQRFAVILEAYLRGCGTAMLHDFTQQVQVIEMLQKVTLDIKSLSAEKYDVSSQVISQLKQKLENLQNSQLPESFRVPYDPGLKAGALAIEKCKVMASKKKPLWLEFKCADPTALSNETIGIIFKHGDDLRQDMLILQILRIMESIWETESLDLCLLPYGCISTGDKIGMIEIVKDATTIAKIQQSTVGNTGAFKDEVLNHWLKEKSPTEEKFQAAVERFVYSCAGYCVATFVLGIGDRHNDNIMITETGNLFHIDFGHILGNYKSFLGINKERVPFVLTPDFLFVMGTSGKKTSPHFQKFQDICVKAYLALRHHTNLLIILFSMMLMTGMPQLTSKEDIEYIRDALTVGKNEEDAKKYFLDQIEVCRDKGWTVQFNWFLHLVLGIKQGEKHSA
Other commercial kits or systems for assaying PI3-K activities are available. […] An exemplary system is PI 3-Kinase (human) HTRF™ Assay from Upstate. […] Briefly, the assay is a time resolved FRET assay that indirectly measures PIP3 product formed by the activity of a PI3-K. The kinase reaction is performed in a microtiter plate (e.g., a 384 well microtiter plate). […] The plate is sealed and incubated for 15 minutes at room temperature. […] The plate is sealed and incubated for 1 hour at room temperature. […] The plate is sealed, incubated for 1 hour at room temperature, and then read on an appropriate plate reader. Data is analyzed and IC50s are generated using GraphPad Prism 5.

Assay [1] concerns PI3K/Akt/mTOR signaling (phosphorylation of Akt-S473 and S6). Description: Kinase signaling in blood (phosflow). It counts as cell-based. Particulars: anti-CD3 stimulated splenocytes or peripheral blood mononuclear cells. Here is the method:
PI3K/Akt/mTOR signaling is measured in blood cells using the phosflow method (Methods Enzymol. (2007) 434:131-54). This method is by nature a single cell assay so that cellular heterogeneity can be detected rather than population averages. This allows concurrent distinction of signaling states in different populations defined by other markers. Phosflow is also highly quantitative. To test the effects of one or more compounds provided herein, unfractionated splenocytes, or peripheral blood mononuclear cells are stimulated with anti-CD3 to initiate T-cell receptor signaling. The cells are then fixed and stained for surface markers and intracellular phosphoproteins. […]
Similarly, aliquots of whole blood are incubated for 15 minutes with vehicle (e.g., 0.1% DMSO) or kinase inhibitors at various concentrations, before addition of stimuli to crosslink the T cell receptor (TCR) (anti-CD3 with secondary antibody) or the B cell receptor (BCR) using anti-kappa light chain antibody (Fab′2 fragments). […] The level of phosphorylation of kinase substrates such as Akt and S6 are then measured by incubating the fixed cells with labeled antibodies specific to the phosphorylated isoforms of these proteins. The population of cells are then analyzed by flow cytometry.

The IC50 is the point on the concentration scale where inhibition reaches its midpoint. A high value points to weaker potency in that assay. With `C[C@H](NC(=O)c1c(N)ncc2ccccc12)c1cc2cccc(Cl)c2c(=O)n1-c1ccccc1` [Compound 3626], the results for the IC50 at PI3K δ and against PI3K γ were > 10 µM and > 5 µM, respectively.
Turning to `C[C@H](NC(=O)c1c(N)nn2ccccc12)c1cc2cccc(Cl)c2c(=O)n1-c1ccccc1` [Compound 31], on PI3K δ, the IC50 lay within 1 to 5 µM.
With `C[C@H](NC(=O)c1c(N)nn2ccccc12)c1cc2cccc(C#Cc3cnn(C)c3)c2c(=O)n1-c1ccccc1` [Compound 1], the half-inhibitory concentration (IC50) against PI3K δ is > 10 µM; against PI3K γ, 0.1 to 0.5 µM. For the same compound, the “PI3K δ/PI3K γ IC50 (selectivity)” value on PI3K γ (δ/γ IC50 selectivity) is on record as “Y (Y = 50 to <850)”.
On to `CO[C@H]1C[C@@H]2CC[C@@H](C)[C@@](O)(O2)C(=O)C(=O)N2CCCC[C@H]2C(=O)O[C@H]([C@H](C)C[C@@H]2CC[C@@H](O)[C@H](OC)C2)CC(=O)[C@H](C)/C=C(\C)[C@@H](O)[C@@H](OC)C(=O)[C@H](C)C[C@H](C)/C=C/C=C/C=C/1C` [rapamycin], for which, in assay [1], the “Akt phosphorylation (Akt-S473)” value was “enhances” and the S6 phosphorylation entry is given as “inhibits”.
